Where two headings read alike, the source gives them in different places.
Key:
[1] = target: intracellular GCN2 (phosphorylation of the GCN2 substrate eIF2α) (Homo sapiens (Human), UniProt Q9P2K8); assay: GCN2 Cellular Inhibition Assay (AlphaScreen SureFire P-eIF2α Ser51, borrelidin-treated U2OS cells); assay type: cell-based; conditions: 10 μM borrelidin, 1 h
In short: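 Phospho-eIF2α (Ser51) measured by AlphaScreen SureFire in lysates of U2OS cells stimulated 1 h at 37 °C with 10 μM borrelidin alongside compound, 4-fold dilutions from 40 μM. Inhibition expressed as percent relative to borrelidin-alone controls.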

GCN2 kinase = GCN2 kinase (Homo sapiens (Human), UniProt Q9P2K8); assay: GCN2 Enzyme Inhibition Assay (Transcreener ADP2 fluorescence polarization); assay type: biochemical; conditions: 280 μM ATP, 200 μM (RS)7 peptide, 4 nM GCN2, 25° C.; for Ki: Ki(app)
In short: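 At 25 °C, GCN2 kinase (typical final concentration 4 nM) and (RS)7 peptide in Tris-HCl pH 7.5 buffer with MgCl2, NaCl and DTT were preincubated with compound for 10 min, then ATP was added for a 1 h reaction. ADP was read by FP with antibody/Alexa633 tracer. Non-linear tight-binding analysis gave IC50 and apparent Ki.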

[2] = phosphorylated eIF2α Ser51, read-out: GCN2 Biomarker (IC50)

Sequence of intracellular GCN2 (phosphorylation of the GCN2 substrate eIF2α) (Q9P2K8 whole entry): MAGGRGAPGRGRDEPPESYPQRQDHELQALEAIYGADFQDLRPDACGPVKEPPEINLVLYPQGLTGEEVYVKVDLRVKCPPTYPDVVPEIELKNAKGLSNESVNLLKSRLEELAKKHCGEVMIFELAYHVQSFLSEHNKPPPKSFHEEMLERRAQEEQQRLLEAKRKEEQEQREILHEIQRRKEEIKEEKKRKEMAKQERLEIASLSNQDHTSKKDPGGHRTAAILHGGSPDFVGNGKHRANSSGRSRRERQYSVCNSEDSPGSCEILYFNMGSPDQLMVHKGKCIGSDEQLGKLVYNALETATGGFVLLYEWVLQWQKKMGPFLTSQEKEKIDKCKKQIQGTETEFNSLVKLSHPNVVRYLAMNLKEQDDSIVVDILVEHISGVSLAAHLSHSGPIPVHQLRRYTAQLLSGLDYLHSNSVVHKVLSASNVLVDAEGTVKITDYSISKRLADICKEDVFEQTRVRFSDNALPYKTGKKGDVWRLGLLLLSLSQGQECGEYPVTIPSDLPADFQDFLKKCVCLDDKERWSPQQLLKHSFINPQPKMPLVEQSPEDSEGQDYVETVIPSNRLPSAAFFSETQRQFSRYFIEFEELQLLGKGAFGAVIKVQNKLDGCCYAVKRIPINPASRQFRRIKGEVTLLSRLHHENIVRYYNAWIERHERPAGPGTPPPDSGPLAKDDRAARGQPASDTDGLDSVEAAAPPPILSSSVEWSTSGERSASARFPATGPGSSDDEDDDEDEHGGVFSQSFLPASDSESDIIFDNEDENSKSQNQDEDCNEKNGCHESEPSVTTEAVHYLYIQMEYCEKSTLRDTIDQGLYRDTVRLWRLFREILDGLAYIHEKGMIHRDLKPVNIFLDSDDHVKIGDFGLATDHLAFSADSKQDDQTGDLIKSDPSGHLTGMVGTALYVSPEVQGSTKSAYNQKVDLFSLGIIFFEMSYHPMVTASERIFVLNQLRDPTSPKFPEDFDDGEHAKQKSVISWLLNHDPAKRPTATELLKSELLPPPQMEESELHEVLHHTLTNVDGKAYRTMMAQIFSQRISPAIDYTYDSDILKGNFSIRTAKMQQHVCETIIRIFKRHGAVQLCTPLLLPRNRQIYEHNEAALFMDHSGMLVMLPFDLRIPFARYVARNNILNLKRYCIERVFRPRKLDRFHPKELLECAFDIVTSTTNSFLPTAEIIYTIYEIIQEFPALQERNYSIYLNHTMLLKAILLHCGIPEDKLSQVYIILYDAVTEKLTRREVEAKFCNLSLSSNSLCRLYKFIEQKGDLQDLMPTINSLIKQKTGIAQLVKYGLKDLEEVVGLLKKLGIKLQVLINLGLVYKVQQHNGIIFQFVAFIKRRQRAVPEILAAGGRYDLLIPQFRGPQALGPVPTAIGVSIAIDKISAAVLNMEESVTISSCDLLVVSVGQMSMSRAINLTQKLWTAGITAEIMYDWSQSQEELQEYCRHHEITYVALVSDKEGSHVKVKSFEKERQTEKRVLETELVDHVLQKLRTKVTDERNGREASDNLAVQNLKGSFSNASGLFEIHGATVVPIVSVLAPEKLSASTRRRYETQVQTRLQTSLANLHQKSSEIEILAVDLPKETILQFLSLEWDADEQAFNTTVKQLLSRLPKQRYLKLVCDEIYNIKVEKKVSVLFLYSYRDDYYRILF
Sequence of GCN2 kinase (Q9P2K8 whole entry): as above

SMILES | IC50 [1, 2] [nM] | IC50 (GCN2 kinase) [nM] | Ki (GCN2 kinase) [nM] | IC50 ([1]; GCN2 Biomarker (IC50), phosphorylated eIF2α Ser51) [nM]
FC(F)(F)c1ccc2ncc(-c3nccc(N4CCCC(n5cncn5)C4)n3)n2c1 (centres unmarked) [I-356, 3-(4-(3-(1H-1,2,4-triazol-1-yl)piperidin-1-yl)pyrimidin-2-yl)-6-(trifluoromethyl)imidazo[1,2-a]pyridine] | 500 to 5000 | 10 to 100 | – | –
FC(F)(F)c1ccc2ncc(-c3nccc(N4CCN(C5CC5)C(c5cn[nH]c5)C4)n3)n2c1 (stereo in doubt) [I-503, (R)-3-(4-(4-cyclopropyl-3-(1H-pyrazol-4-yl)piperazin-1-yl)pyrimidin-2-yl)-6-(trifluoromethyl)imidazo[1,2-a]pyridine] | < 500 | 10 to 100 | – | –
CS(=O)(=O)C1CC(N2CCN(c3ccnc(-c4cnc5ccc(C(F)(F)F)cn45)n3)C[C@H]2c2cn[nH]c2)C1 (stereo partly drawn) [I-490, 3-{4-[(R)-4-(3-Methanesulfonyl-cyclobutyl)-3-(1H-pyrazol-4-yl)-piperazin-1-yl]-pyrimidin-2-yl}-6-trifluoromethyl-imidazo[1,2-a]pyridine] | < 500 | < 10 | – | –
CC1CN(c2ccnc(-c3cnc4ccc(C(F)(F)F)cn34)n2)CC(C)N1C1CC1 (centres unmarked) [I-392, 3-(4-(4-cyclopropyl-3,5-dimethylpiperazin-1-yl)pyrimidin-2-yl)-6-(trifluoromethyl)imidazo[1,2-a]pyridine] | 500 to 5000 | 100 to 1000 | – | –
C[C@@H]1[C@H](c2cn[nH]c2)NCCN1c1ccnc(-c2cnc3ccc(C(F)(F)F)cn23)n1 [I-537, 4-[(2R,3 S)-2-methyl-3-(1H-pyrazol-4-yl)piperazin-1-yl]-2-[6-(trifluoromethyl)imidazo[1,2-a]pyridin-3-yl]pyrimidine] | < 500 | < 10 | – | –
FC(F)(F)c1ccc2ncc(-c3nccc(N4CCN(Cc5cnc[nH]5)C(c5cn[nH]c5)C4)n3)n2c1 (centres unmarked) [I-385, 3-(4-(4-((1H-imidazol-5-yl)methyl)-3-(1H-pyrazol-4-yl)piperazin-1-yl)pyrimidin-2-yl)-6-(trifluoromethyl)imidazo[1,2-a]pyridine] | 500 to 5000 | < 10 | – | –
CC1(F)CCCN(c2ccnc(-c3cnc4ccc(C(F)(F)F)cn34)n2)C1 (centres unmarked) [I-226, 3-(4-(3-fluoro-3-methylpiperidin-1-yl)pyrimidin-2-yl)-6-(trifluoromethyl)imidazo[1,2-a]pyridine] | 500 to 5000 | 100 to 1000 | – | –
C[C@@H]1C[C@H](N=S(C)(C)=O)CN(c2nccc(-c3cnc4cc(Cl)c(Cl)cn34)n2)C1 [I-244, (((3 S,5R)-1-(4-(6,7-dichloroimidazo[1,2-a]pyridin-3-yl)pyrimidin-2-yl)-5-methylpiperidin-3-yl)imino)dimethyl-λ6-sulfanone] | 500 to 5000 | 10 to 100 | – | –
FC(F)(F)c1ccc2ncc(-c3nccc(N4CCN[C@H](c5cn[nH]c5)C4)n3)n2c1 [I-532, (R)-3-(4-(3-(1H-pyrazol-4-yl)piperazin-1-yl)pyrimidin-2-yl)-6-(trifluoromethyl)imidazo[1,2-a]pyridine] | 500 to 5000 | 10 to 100 | – | –
Cc1n[nH]cc1C1CN(c2ccnc(-c3cnc4ccc(C(F)(F)F)cn34)n2)CC(C)O1 (centres unmarked) [I-358, 2-methyl-6-(3-methyl-1H-pyrazol-4-yl)-4-(2-(6-(trifluoromethyl)imidazo[1,2-a]pyridin-3-yl)pyrimidin-4-yl)morpholine] | < 500 | < 10 | – | –
C[C@@H]1[C@H](c2cn[nH]c2)N(C2COC2)CCN1c1ccnc(-c2cnc3ccc(C(F)(F)F)cn23)n1 [I-362, 4-[(2R,3 S)-2-methyl-4-(oxetan-3-yl)-3-(1H-pyrazol-4-yl)piperazin-1-yl]-2-[6-(trifluoromethyl)imidazo[1,2-a]pyridin-3-yl]pyrimidine] | < 500 | < 10 | – | –
Cc1oncc1[C@@H]1CN(c2ccnc(-c3cnc4ccc(C(F)(F)F)cn34)n2)C[C@@H](C)O1 [I-343, (2R,6R)-2-methyl-6-(5-methylisoxazol-4-yl)-4-(2-(6-(trifluoromethyl)imidazo[1,2-a]pyridin-3-yl)pyrimidin-4-yl)morpholine] | 500 to 5000 | 100 to 1000 | – | –
OCC1CC(N2CCN(c3ccnc(-c4cnc5ccc(C(F)(F)F)cn45)n3)CC2c2cn[nH]c2)C1 (centres unmarked) [I-390, (3-(2-(1H-pyrazol-4-yl)-4-(2-(6-(trifluoromethyl)imidazo[1,2-a]pyridin-3-yl)pyrimidin-4-yl)piperazin-1-yl)cyclobutyl)methanol] | < 500 | < 10 | – | –
Fc1cc2ncc(-c3nccc(N4CCOC(c5cn[nH]c5)C4)n3)n2cc1Cl (centres unmarked) [I-23, 4-[2-(6-Chloro-7-fluoro-imidazo[1,2-a]pyridin-3-yl)pyrimidin-4-yl]-2-(1H-pyrazol-4-yl)morpholine] | < 500 | – | < 10 | –
O=C(Nc1cn[nH]c1)[C@H]1CCCN(c2ccnc(-c3cnc4cc(F)c(Cl)cn34)n2)C1 [I-58, (S)-1-[2-(6-Chloro-7-fluoro-imidazo[1,2-a]pyridine-3-yl)-pyrimidin-4-yl]-piperidine-3-carboxylic acid (1H-pyrazol-4-yl)-amide] | – | – | 10 to 100 | 500 to 5000
CC1(CN2CCN(c3ccnc(-c4cnc5ccc(C(F)(F)F)cn45)n3)CC2c2cn[nH]c2)CC1 (centres unmarked) [I-510, 3-(4-(4-((1-methylcyclopropyl)methyl)-3-(1H-pyrazol-4-yl)piperazin-1-yl)pyrimidin-2-yl)-6-(trifluoromethyl)imidazo[1,2-a]pyridine] | < 500 | < 10 | – | –
COCCn1cc([C@@H]2C[C@H](C)CN(c3nccc(-c4cnc5ccc(C(F)(F)F)cn45)n3)C2)cn1 [I-146, 3-(2-((3S,5S)-3-(1-(2-methoxyethyl)-1H-pyrazol-4-yl)-5-methylpiperidin-1-yl)pyrimidin-4-yl)-6-(trifluoromethyl)imidazo[1,2-a]pyridine] | 500 to 5000 | 100 to 1000 | – | –
NC(=O)C1CN(c2ccnc(-c3cnc4ccc(C(F)(F)F)cn34)n2)CCN1C1COC1 (centres unmarked) [I-263, 1-(oxetan-3-yl)-4-(2-(6-(trifluoromethyl)imidazo[1,2-a]pyridin-3-yl)pyrimidin-4-yl)piperazine-2-carboxamide] | 500 to 5000 | 10 to 100 | – | –
CC(C)n1ccc(C(=O)N2[C@H](C)CN(c3ccnc(-c4cnc5ccc(C(F)(F)F)cn45)n3)C[C@@H]2C)n1 [I-401, (cis-2,6-dimethyl-4-(2-(6-(trifluoromethyl)imidazo[12-a]pyridin-3-yl)pyrimidin-4-yl)piperazin-1-yl)(1-isopropyl-1H-pyrazol-3-yl)methanone] | 500 to 5000 | 100 to 1000 | – | –
Clc1ccc2ncc(-c3nccc(N4CCCC(c5cnoc5)C4)n3)n2c1 (centres unmarked) [I-65, 6-Chloro-3-[4-(3-isoxazol-4-yl-piperidin-1-yl)-pyrimidin-2-yl]-imidazo[1,2-a]pyridine] | 500 to 5000 | – | 10 to 100 | –
C[C@H]1[C@@H](c2cn[nH]c2)N(C2COC2)CCN1c1ccnc(-c2cnc3ccc(C(F)(F)F)cn23)n1 [I-361, 3-(4-((2S,3R)-2-methyl-4-(oxetan-3-yl)-3-(1H-pyrazol-4-yl)piperazin-1-yl)pyrimidin-2-yl)-6-(trifluoromethyl)imidazo[1,2-a]pyridine] | 500 to 5000 | 10 to 100 | – | –
O=C(C1CC(F)(F)C1)N1CCN(c2ccnc(-c3cnc4ccc(C(F)(F)F)cn34)n2)CC1c1cn[nH]c1 (centres unmarked) [I-402, (2-(1H-pyrazol-4-yl)-4-(2-(6-(trifluoromethyl)imidazo[1,2-a]pyridin-3-yl)pyrimidin-4-yl)piperazin-1-yl)(3,3-difluorocyclobutyl)methanone] | 500 to 5000 | 100 to 1000 | – | –

— patent US10793563B2, “GCN2 inhibitors and uses thereof” (Merck Patent GmbH, priority 2018, dated 2020)
